The target in data set [1] is ATP-dependent translocase ABCB1 (Rattus norvegicus, UniProt P43245). The experiment in a line: TP_TRANSPORTER: Northern blot in vitro, nonparenchymal ral liver epithelial cells. The settings on record: epithelial cell. It counts as functional.
Data set [2] has as its target Multidrug resistance protein 1a (Rattus norvegicus) (UniProt Q6PSM0). The data set can be described thus: TP_TRANSPORTER: Western in vitro, nonparenchymal ral liver epithelial cells. The class given is functional, tissue-based. The settings on record: Epithelial cell.

Multidrug resistance protein 1a (Rattus norvegicus), sequence (Q6PSM0 as listed by the source): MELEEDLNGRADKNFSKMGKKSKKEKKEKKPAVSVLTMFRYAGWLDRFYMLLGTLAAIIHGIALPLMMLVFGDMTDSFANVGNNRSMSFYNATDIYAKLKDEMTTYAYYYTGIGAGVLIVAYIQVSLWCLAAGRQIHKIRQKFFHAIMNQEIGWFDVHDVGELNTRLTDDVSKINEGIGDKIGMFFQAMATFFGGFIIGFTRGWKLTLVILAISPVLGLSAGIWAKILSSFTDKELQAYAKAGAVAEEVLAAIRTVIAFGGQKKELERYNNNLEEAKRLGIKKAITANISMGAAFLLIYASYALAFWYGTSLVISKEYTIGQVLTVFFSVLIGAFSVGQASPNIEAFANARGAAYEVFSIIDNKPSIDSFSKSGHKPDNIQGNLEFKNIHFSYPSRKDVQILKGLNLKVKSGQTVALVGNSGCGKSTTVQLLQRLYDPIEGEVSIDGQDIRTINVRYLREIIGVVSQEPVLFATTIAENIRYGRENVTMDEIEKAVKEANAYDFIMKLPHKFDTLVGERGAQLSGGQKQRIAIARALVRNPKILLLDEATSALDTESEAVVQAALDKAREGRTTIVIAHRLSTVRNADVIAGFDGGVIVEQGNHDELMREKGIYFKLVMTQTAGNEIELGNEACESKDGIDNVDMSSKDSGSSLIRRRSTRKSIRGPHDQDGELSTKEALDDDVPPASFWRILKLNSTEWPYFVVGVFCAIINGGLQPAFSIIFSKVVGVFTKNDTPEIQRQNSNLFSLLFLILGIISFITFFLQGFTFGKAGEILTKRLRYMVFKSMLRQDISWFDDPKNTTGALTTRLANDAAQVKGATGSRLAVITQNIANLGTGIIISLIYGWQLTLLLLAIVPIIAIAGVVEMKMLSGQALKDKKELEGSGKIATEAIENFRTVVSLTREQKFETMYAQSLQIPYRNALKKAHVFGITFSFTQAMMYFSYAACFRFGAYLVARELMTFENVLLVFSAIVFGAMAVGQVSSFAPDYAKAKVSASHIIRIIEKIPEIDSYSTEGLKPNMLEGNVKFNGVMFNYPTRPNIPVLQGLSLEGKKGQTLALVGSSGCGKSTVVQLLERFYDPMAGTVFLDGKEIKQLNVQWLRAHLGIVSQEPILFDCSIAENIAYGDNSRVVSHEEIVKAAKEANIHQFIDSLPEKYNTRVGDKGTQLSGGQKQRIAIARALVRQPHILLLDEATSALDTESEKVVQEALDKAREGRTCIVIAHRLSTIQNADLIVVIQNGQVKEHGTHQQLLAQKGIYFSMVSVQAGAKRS
ATP-dependent translocase ABCB1, sequence (P43245 whole entry): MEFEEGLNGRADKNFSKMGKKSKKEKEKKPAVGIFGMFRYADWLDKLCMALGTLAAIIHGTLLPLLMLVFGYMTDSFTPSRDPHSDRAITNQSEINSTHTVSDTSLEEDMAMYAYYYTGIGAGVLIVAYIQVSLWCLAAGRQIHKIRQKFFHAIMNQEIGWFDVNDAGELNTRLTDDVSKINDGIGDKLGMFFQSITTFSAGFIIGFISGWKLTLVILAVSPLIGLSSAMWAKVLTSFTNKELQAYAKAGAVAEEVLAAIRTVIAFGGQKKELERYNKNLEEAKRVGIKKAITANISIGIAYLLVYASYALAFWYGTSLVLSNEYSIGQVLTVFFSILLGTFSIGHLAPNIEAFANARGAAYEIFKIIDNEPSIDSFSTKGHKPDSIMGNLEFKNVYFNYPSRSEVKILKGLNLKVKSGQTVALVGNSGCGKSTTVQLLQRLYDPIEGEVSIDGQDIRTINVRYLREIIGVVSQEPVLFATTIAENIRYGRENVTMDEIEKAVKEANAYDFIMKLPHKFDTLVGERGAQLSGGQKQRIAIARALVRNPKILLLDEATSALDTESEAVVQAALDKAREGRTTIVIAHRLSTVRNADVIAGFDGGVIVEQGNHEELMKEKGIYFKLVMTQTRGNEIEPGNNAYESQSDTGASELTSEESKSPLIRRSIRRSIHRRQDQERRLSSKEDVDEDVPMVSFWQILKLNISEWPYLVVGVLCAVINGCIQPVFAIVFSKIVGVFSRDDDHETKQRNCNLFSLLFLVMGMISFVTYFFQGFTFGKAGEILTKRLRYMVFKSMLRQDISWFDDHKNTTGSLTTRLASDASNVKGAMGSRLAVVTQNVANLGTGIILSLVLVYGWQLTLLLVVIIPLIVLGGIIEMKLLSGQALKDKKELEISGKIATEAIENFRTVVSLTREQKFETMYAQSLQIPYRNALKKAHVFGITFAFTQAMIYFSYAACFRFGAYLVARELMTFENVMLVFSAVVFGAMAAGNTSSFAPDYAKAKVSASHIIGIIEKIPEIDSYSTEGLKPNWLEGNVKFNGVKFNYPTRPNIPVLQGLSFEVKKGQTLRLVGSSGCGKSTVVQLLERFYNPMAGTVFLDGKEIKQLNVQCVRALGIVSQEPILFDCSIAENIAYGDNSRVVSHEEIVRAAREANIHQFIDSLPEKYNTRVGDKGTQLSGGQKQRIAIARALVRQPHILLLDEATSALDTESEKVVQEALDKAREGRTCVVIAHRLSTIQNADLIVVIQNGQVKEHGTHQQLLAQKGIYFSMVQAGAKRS

Consider `COc1cccc2c1C(=O)c1c(O)c3c(c(O)c1C2=O)C[C@@](O)(C(=O)CO)C[C@@H]3O[C@H]1C[C@H](N)[C@H](O)[C@H](C)O1` [DOXORUBICIN], for which the Activity result in data set [1] and in data set [2] was “inducer [+]” in each case.

For the origin of these results see ChEMBL document CHEMBL2074045, “Up-regulation of P-glycoprotein expression in rat liver cells by acute doxorubicin treatment” (Eur J Biochem, 1997).
